Common to all, as to format: in vivo
In assay [1] the test system is carrageenan-induced edema. As to the kind of experiment: Test E (Acute Carrageenan-Induced Edema), anti-inflammatory. Conditions: Rattus norvegicus, po, 3 h; p.o., rats, one hour prior to carrageenan; edema measured three hours after carrageenan. The text has this: (§1) The compounds of Formula I and the pharmaceutically acceptable acid addition salts thereof are useful for the treatment of inflammation in animals (e.g., mammals) as indicated by Test E and, with the exception of those wherein R2 is 4-NR5 R6 and R3 and R4 are hydrogen, as muscle relaxants in animals (e.g., mammals) as indicated by Tests A, B, C and D. The preferred compounds of Formula I and pharmaceutically acceptable acid addition salts set forth above are those that are preferred for muscle relaxation.
Test E (Acute Carrageenan-Induced Edema): Rats are orally dosed (10-200 mg./kg. body weight) with the test drug (compound of Formula I in free base or pharmaceutically acceptable acid addition salt form) one hour prior to administration of carrageenan; edema is measured three hours subsequent to the carrageenan administration. See Winter, Proc. Soc. Exp. Biol. 111, 544 (1962).
For orientation: The carrageenan paw model is a standard test of acute inflammation.

The subject of the next assay is linguomandibular reflex. The experiment in a line: Test D (Linguomandibular Reflex (LMR)), muscle relaxant. The note with it: Felis catus, iv, cats, alpha chloralose anesthesia; read-out: ED50 (dose that reduces the response by 50%).
From the text: as §1
Test D (Linguomandibular Reflex (LMR)): The linguomandibular reflex is a polysynaptic reflex involving interneurons within the brain stem. Inhibition of the linguomandibular reflex has been correlated with central muscle relaxant activity. See Bhargava et al., Brit. J. Pharmacol. 25, 74-80 (1965).
Male cats weighing 2.0-3.0 kg. are utilized to study the effect of a drug on the linguomandibular reflex. […]
The head of the cat is rigidly fixed in a Kopf stereotaxic u-frame assembly allowing the lower jaw (mandible) to move freely. The movement of the lower jaw is recorded through a system of surgical thread, pulleys and a ft. […]
After consistent linguomandibular responses are obtained, the test drug (compound of Formula I in free base or pharmaceutically acceptable acid addition salt form) is administered intravenously at a dose of 2-50 mg./kg. body weight and its effect is recorded. […]

Assay [2] relates to male Royal Hart mice (rotarod time). As to the kind of experiment: Test A (Rotarod Test), muscle relaxant. The note with it: for ED50: Mus musculus, tested 30 and 60 minutes after administration, read-out: ED50 (dose which decreases the rotarod time by 50%); for percent change in rotarod time: 200 mg./kg. p.o., vs control.
From the text: as §1
Test A (Rotarod Test): A modification of the rotarod method of Dunham et al., J. Am. Pharm. Assoc. 46, 208 (1957), is used. Groups of 5 male Royal Hart mice weighing 20-25 g. are trained to ride a rod revolving at 15 r.p.m. covered with corrugated paper for 60-90 seconds. Ability of the mice to remain on the rod is tested again at 30 minutes and 60 minutes after intraperitoneal or oral administration of the drug (the compound of Formula I in free base or pharmaceutically acceptable acid addition salt form) at a dose of 20-400 mg./kg. body weight or saline. Rotarod times for control and treated groups are compared to determine the percent change. The ED50 is the dose of the drug which decreases the rotarod time by 50% or is calculated by interpolation.

The test system of assay [3] is mono (patellar)--and poly (flexor)--synaptic gross spinal reflexes. As to the kind of experiment: Test B (Gross Spinal Reflex), muscle relaxant. Conditions: Felis catus, iv, cats, alpha chloralose anesthesia, progressively accumulating doses; read-out: ED50 (dose that reduces the response by 50%).
From the text: as §1
Test B (Gross Spinal Reflex): Male cats weighing 2.5-3.0 kg. are utilized to study the effects of drugs on the mono (patellar)--and poly (flexor)--synaptic gross spinal reflexes. A Grass Model 7 polygraph with two ft. 03 force displacement transducers and two low level D.C. pre-amplifiers is utilized to measure the flexor and patellar responses.
Anesthesia is induced with ether, followed by an i.v. injection of alpha chloralose dissolved in warm distilled water at a dose of 70 mg./kg. body weight. […]
A drill bit pin is inserted just behind the lateral epicondyle of the left femur. […] Contraction of the left leg is measured via a force displacement transducer. […]
A series of control responses is recorded prior to administration of the drug (compound of Formula I in free base or pharmaceutically acceptable acid addition salt form). […]

Structures are written as SMILES. Like-named read-outs stand apart in the source and are kept apart here.

For `Cn1c(-c2ccccc2Cl)cc2ncccc2c1=O` [Example 4, 7-(2'-Chlorophenyl)-6-methyl-1,6-naphthyridine-5(6H)-one], the ED50 in assay [1] amounted to 29 mg/kg; with linguomandibular reflex it was 4.6 mg/kg; in assay [2] (ip), 49.3 mg/kg; in assay [2] (po), 39.1 mg/kg; in assay [3], 1.6 mg/kg.
As for `Cc1ccccc1-c1cc2ncccc2c(=O)n1C` [Example 6, 6-Methyl-7-(2'-methylphenyl)-1,6-naphthyridine-5-(6H)-one], the ED50 in assay [2] (ip) was found to be 36.8 mg/kg; in assay [2] (po), 43.5 mg/kg.
On to `CN(C)c1cccc(-c2cc3ncccc3c(=O)n2C)c1` [Example 8, 7-(3'-Dimethylaminophenyl)-6-methyl-1,6-naphthyridine-5(6H)-one], for which, in assay [2], the “percent change in rotarod time” value is 47.3%. Also, the ED50 in assay [2] (ip) was 141 mg/kg.
The matching figures for `Cn1c(-c2ccc(Cl)cc2)cc2ncccc2c1=O` [Example 11, 7-(4'-Chlorophenyl)-6-methyl-1,6-naphthyridine-5-(6H)-one]: 32% and 134 mg/kg.

As usually defined, the ED50 is the dose that gives a 50% effect, or the effect in half of the subjects.

Source of the values: patent publication US4329349A, “6-C1-4 Alkyl-7-phenyl or substituted phenyl-1,6-naphthyridine-5(6H)-ones” (Sandoz, Inc., priority 1980, dated 1982).
